Reference: patent US12612427B2, “Aryl glucoside derivative, preparation method therefor and application thereof” (Shanghai Zheye Biotechnology Co. Ltd., priority 2020, dated 2026)

Columns and labels:
[1] = test system: type 2 diabetes mouse model; assay: In vivo hypoglycemic efficacy experiment combined with sitagliptin; details: 0.01, 0.05, 0.1 mg/kg combined with 20 mg/kg of sitagliptin, STZ and high-fat high-sugar diet mice
Experimental: Model establishment: SPF grade Balb/C male mice were used in this experiment, and the establishment of the type 2 diabetes mouse model was induced by intraperitoneal injection of streptozotocin (STZ) supplemented by high-fat and high-sugar diet. • Group: 10 per group
Administration: normal group, model group, low-dose combined administration group (0.01 mg/kg of the compound of Example 10+20 mg/kg of sitagliptin), medium-dose combined administration group (0.05 mg/kg of the compound of Example 10+20 mg/kg of sitagliptin), high-dose combined administration group (0.1 mg/kg of the compound of Example 10+20 mg/kg of sitagliptin), sitagliptin group (20 mg/kg). The normal group and the model group were given the solvent by gavage.

[2] = test system: microorganisms in rat feces; assay: Intestinal microbial metabolic stability in rat feces suspension; assay type: in vitro ADME; details: for Percentage of remaining compound: rat feces suspension, 37° C.
Experimental: Methods: The collected rat feces were processed, and the feces suspension was obtained for the determination of metabolic stability. The mixed reaction system consisting of the rat feces suspension and the compound of […] was incubated at 37° C. for 3 h, 6 h, 12 h and 24 h. The compound of Example 10 in the incubation system was analyzed to determine the total amount of remaining compound. Wherein, “+” represents the remaining percentage being: <50%; “++” represents the remaining percentage being: 50% to 70%; “+++” represents the remaining percentage being: 70% to 90%; “++++” means the remaining percentage being: >90%.

C#CCN(C)C(=O)CN(C)CCNC(=O)C(C)(C)NC(=O)CCCc1ccc(Cc2cc([C@@H]3O[C@H](SC)[C@@H](O)[C@H](O)[C@H]3O)ccc2C)cc1 [Example 10]
blood glucose level of diabetic model animals [1]: significantly reduce the blood glucose level | remaining compound ([2]; incubated with microorganisms in rat feces for about 24 hours): > 70% | Percentage of remaining compound ([2]; incubation 3 h): ++++ (“++++” means the remaining percentage being: >90%) | Percentage of remaining compound ([2]; incubation 6 h): +++ (“+++” represents the remaining percentage being: 70% to 90%) | Percentage of remaining compound ([2]; incubation 12 h): +++ (“+++” represents the remaining percentage being: 70% to 90%) | Percentage of remaining compound ([2]; incubation 24 h): +++ (“+++” represents the remaining percentage being: 70% to 90%)
